Data from patent US9549930B2, “Combined systemic and topical treatment of disordered and/or prodromal stage tissue” (priority 2013, dated 2017).

How the values were obtained:
Herpes Zoster (HZV) = assay: Case histories: systemic anti-viral drug alone for shingles; type: in vivo, human
Source text: A person with a clinical history of recurrent Herpes Zoster (HZV) (or in layman's terms, shingles) experienced a recurrent outbreak after a stressful week at work and a weekend in the sun following a trip to a tanning booth. (It is known that stress and UV-B can both trigger herpetic outbreaks.) This subject had their first episode with HZV about one year prior. They were diagnosed by their physician and given a prescription for Zovirax (acyclovir). They took the Zovirax, but experienced lesions lasting 3-4 weeks and experienced over 12 weeks of post-herpetic neuralgia. The previous episode included all the classic stages, including weeping, but only involved several very small lesions.
A person was vacationing in California when they developed a red rash and subsequent lesions on their right buttock. They were diagnosed with herpes zoster (shingles) on day 2, after first signs and symptoms were noted, and was prescribed valacyclovir (Valtrex) per label.
As […] to get to their home from California, they and their spouse elected to extend their time in California.
The patient initially went to the doctor in the early stages of the infection when it was only on their leg. The doctor diagnosed the condition as shingles and prescribed the patient Valtrex. […] The bumps were smaller but they kept spreading. The doctor advised them to keep taking the Valtrex. Once the patient finished the first prescription of Valtrex, the doctor provided a second Valtrex prescription. […] The sores remained the same size although the sores on the patient's leg were much larger than on their lower trunk.
A person had shingles on their neck and shoulders. Their sibling is a physician and diagnosed shingles and prescribed a nucleoside drug according to FDA approved labeling. The lesions had started to propagate down the affected dermatomes of the shoulder and neck. The lesions continued to progress despite anti-viral therapy.

[1] = cited from earlier work
[2] = cited from earlier work; remark: listed apart in the source
[3] = Example 4, person, first HZV episode, Zovirax alone

Row | SMILES | duration of post-herpetic neuralgia (Herpes Zoster (HZV); [3]) | lesions lasting (Herpes Zoster (HZV); [3]) | absorption from the gastrointestinal tract ([1]; after oral administration) | solubility in water [2] | state on day 18 after first signs, after completed regimen (Herpes Zoster (HZV); Example 6, Valtrex regimen as prescribed) | effect on shingles initially (Herpes Zoster (HZV); Example 6, person, Valtrex per label from day 2) | state of sores after first prescription finished (Herpes Zoster (HZV); Example 8, Valtrex alone) | course of lesions shortly after first doses (Herpes Zoster (HZV); Example 8, person, Valtrex alone) | bioavailability ([1]; oral administration, shown in U.S. Pat. No. 4,957,924)
1 | Nc1nc2c(ncn2COCCO)c(=O)[nH]1 [Aciclovir, 9-(2-hydroxyethoxymethyl)guanine] | over 12 weeks | 3-4 weeks | poorly absorbed | poorly soluble in water |  |  |  |  | 
2 | CC(C)[C@H](N)C(=O)OCCOCn1cnc2c(=O)[nH]c(N)nc21 [Valtrex] |  |  |  |  | still had open herpetic lesions | little noticeable effect initially | still open and large | the lesions spread up the patient's leg and to their lower trunk | improved bioavailability
